According to patent US9745304B2, “Amidoimidazopyridazines as MKNK-1 kinase inhibitors” (BAYER PHARMA AKTIENGESELLSCHAFT, priority 2013, dated 2017):

Columns and labels:
[1] = target: human full-lengt MKNK1 (GST fusion, T344D) (Homo sapiens (Human), UniProt Q9BUB5, T344D); test: MKNK1 kinase assay (TR-FRET, 10 μM ATP); assay type: biochemical; settings: 15 min preincubation
Description: MKNK1-inhibitory activity of compounds of the present invention was quantified employing the MKNK1 TR-FRET assay as described in the following paragraphs.
As substrate for the kinase reaction the biotinylated peptide biotin-Ahx-[…] (C-terminus in amide form) was used which can be purchased e.g. form the company Biosyntan (Berlin-Buch, Germany).
For the assay 50 nL of a 100 fold concentrated solution of the test compound in DMSO was pipetted into a black low volume 384 well microtiter plate (Greiner Bio-One, Frickenhausen, Germany), 2 μL of a solution of MKNK1 in aqueous assay buffer [50 mM HEPES pH 7.5, 5 mM magnesium chloride, 1.0 mM dithiothreitol, 0.005% (v/v) Nonidet-P40 (Sigma)] was added and the mixture was incubated for 15 min at 22° C. to allow pre-binding of the test compounds to the enzyme before the start of the kinase reaction. […] The concentration of MKNK1 was adjusted depending of the activity of the enzyme lot and was chosen appropriate to have the assay in the linear range, typical concentrations were in the range of 0.05 μg/ml. The reaction was stopped by the addition of 5 μL of a solution of TR-FRET detection reagents (5 nM streptavidine-XL665 [Cisbio Bioassays, Codolet, France] and 1 nM anti-ribosomal protein S6 (pSer236)-antibody from Invitrogen [#44921G] and 1 nM LANCE EU-W1024 labeled ProteinG [Perkin-Elmer, product no. AD0071]) in an aqueous EDTA-solution (100 mM EDTA, 0.1% (w/v) bovine serum albumin in 50 mM HEPES pH 7.5).
(§1) The resulting mixture was incubated for 1 h at 22° C. to allow the formation of complex between the phosphorylated biotinylated peptide and the detection reagents. Subsequently the amount of phosphorylated substrate was evaluated by measurement of the resonance energy transfer from the Eu-chelate to the streptavidine-XL. Therefore, the fluorescence emissions at 620 nm and 665 nm after excitation at 350 nm were measured in a TR-FRET reader, e.g. a Rubystar (BMG Labtechnologies, Offenburg, Germany) or a Viewlux (Perkin-Elmer). The ratio of the emissions at 665 nm and at 622 nm was taken as the measure for the amount of phosphorylated substrate.

[2] = target: human full-length MKNK1 (GST fusion, T344D) (Homo sapiens (Human), UniProt Q9BUB5, T344D); test: MKNK1 kinase high ATP assay (TR-FRET, 2 mM ATP); assay type: biochemical; settings: 15 min preincubation
Description: MKNK1 Kinase High ATP Assay
MKNK1-inhibitory activity at high ATP of compounds of the present invention after their preincubation with MKNK1 was quantified employing the TR-FRET-based MKNK1 high ATP assay as described in the following paragraphs.
As substrate for the kinase reaction the biotinylated peptide biotin-Ahx-[…] (C-terminus in amide form) was used, which can be purchased e.g. from the company Biosyntan (Berlin-Buch, Germany).
For the assay 50 nL of a 100 fold concentrated solution of the test compound in DMSO was pipetted into a black low volume 384 well microtiter plate (Greiner Bio-One, Frickenhausen, Germany), 2 μL of a solution of MKNK1 in aqueous assay buffer [50 mM HEPES pH 7.5, 5 mM magnesium chloride, 1.0 mM dithiothreitol, 0.005% (v/v) Nonidet-P40 (Sigma)] was added and the mixture was incubated for 15 min at 22° C. to allow pre-binding of the test compounds to the enzyme before the start of the kinase reaction. Then the kinase reaction was started by the addition of 3 μL of a solution of adenosine-tri-phosphate (ATP, 3.3 mM=>final conc. in the 5 μL assay volume is 2 mM) and substrate (0.1 μM=>final conc. in the 5 μL assay volume is 0.06 μM) in assay buffer and the resulting mixture was incubated for a reaction time of 30 min at 22° C. The concentration of MKNK1 was adjusted depending of the activity of the enzyme lot and was chosen appropriate to have the assay in the linear range, typical concentrations were in the range of 0.003 μg/mL. The reaction was stopped by the addition of 5 μL of a solution of TR-FRET detection reagents (5 nM streptavidine-XL665 [Cisbio Bioassays, Codolet, France] and 1 nM anti-ribosomal protein S6 (pSer236)-antibody from Invitrogen [#44921G] and 1 nM LANCE EU-W1024 labeled ProteinG [Perkin-Elmer, product no. AD0071]) in an aqueous EDTA-solution (100 mM EDTA, 0.1% (w/v) bovine serum albumin in 50 mM HEPES pH 7.5).
as §1

Sequence of human full-length MKNK1 (GST fusion, T344D) (Q9BUB5 other isoform, or with tags, fused parts or gaps T344D): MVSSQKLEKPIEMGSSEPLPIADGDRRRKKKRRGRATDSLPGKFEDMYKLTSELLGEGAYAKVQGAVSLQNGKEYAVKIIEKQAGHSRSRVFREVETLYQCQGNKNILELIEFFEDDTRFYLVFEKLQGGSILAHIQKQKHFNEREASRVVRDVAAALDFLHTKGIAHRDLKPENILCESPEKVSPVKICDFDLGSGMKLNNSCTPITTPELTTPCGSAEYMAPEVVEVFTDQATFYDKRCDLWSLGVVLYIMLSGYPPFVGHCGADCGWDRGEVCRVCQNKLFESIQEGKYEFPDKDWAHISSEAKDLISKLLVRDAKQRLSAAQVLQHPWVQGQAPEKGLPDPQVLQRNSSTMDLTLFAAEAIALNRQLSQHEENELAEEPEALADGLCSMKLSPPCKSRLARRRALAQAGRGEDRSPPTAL
Sequence of human full-lengt MKNK1 (GST fusion, T344D) (Q9BUB5 other isoform, or with tags, fused parts or gaps T344D): as above

IC50 [1]	IC50 [2]	Compound
4 nM	12 nM	C[C@@H](O)C(=O)Nc1ccc2ncc(-c3cc4ccccc4o3)n2n1 [Example 13, (2R)—N-[3-(1-Benzofuran-2-yl)imidazo[1,2-b]pyridazin-6-yl]-2-hydroxypropanamide]
3 nM	7 nM	O=C1CC[C@@H](CO)N1c1ccc2ncc(-c3cc4ccccc4o3)n2n1 [Example 11, (5S)-1-[3-(1-Benzofuran-2-yl)imidazo[1,2-b]pyridazin-6-yl]-5-(hydroxymethyl)-pyrrolidin-2-one]
8 nM	6 nM	O=C(CCc1c[nH]cn1)Nc1ccc2ncc(-c3cc4ccccc4o3)n2n1 [Example 19, N-[3-(1-Benzofuran-2-yl)imidazo[1,2-b]pyridazin-6-yl]-3-(1H-imidazol-4-yl)-propanamide]
67 nM	62 nM	Cc1cccc(CCC(=O)Nc2ccc3ncc(-c4cc5ccccc5o4)n3n2)c1 [Example 31, N-[3-(1-benzofuran-2-yl)imidazo[1,2-b]pyridazin-6-yl]-3-(3-methylphenyl)propanamide]
7 nM	12 nM	O=C(Cc1ccccn1)Nc1ccc2ncc(-c3cc4ccccc4o3)n2n1 [Example 6, N-[3-(1-Benzofuran-2-yl)imidazo[1,2-b]pyridazin-6-yl]-2-(pyridin-2-yl)acetamide]
9 nM	13 nM	CCN(CC)CCC(=O)Nc1ccc2ncc(-c3cc4ccccc4o3)n2n1 [Example 23, N-[3-(1-benzofuran-2-yl)imidazo[1,2-b]pyridazin-6-yl]-N^3,N^3-diethyl-β-alaninamide]
13 nM	23 nM	O=C(CCC1CC1)Nc1ccc2ncc(-c3cc4ccccc4o3)n2n1 [Example 22, N-[3-(1-benzofuran-2-yl)imidazo[1,2-b]pyridazin-6-yl]-3-cyclopropylpropanamide]
8 nM	18 nM	O=C(Cc1ccccc1)Nc1ccc2ncc(-c3cc4ccccc4o3)n2n1 [Example 1, N-[3-(1-Benzofuran-2-yl)imidazo[1,2-b]pyridazin-6-yl]-2-phenylacetamide]
3 nM	11 nM	O=C(Nc1ccc2ncc(-c3cc4ccccc4o3)n2n1)C(O)c1cccnc1 (stereo not drawn) [Example 3, N-[3-(1-Benzofuran-2-yl)imidazo[1,2-b]pyridazin-6-yl]-2-hydroxy-2-(pyridin-3-yl)acetamide]
25 nM	36 nM	N#CC1(C(=O)Nc2ccc3ncc(-c4cc5ccccc5o4)n3n2)CC1 [Example 24, N-[3-(1-benzofuran-2-yl)imidazo[1,2-b]pyridazin-6-yl]-1-cyanocyclopropane carboxamide]
3 nM	7 nM	O=C(CCc1cccnc1)Nc1ccc2ncc(-c3cc4ccccc4o3)n2n1 [Example 9, N-[3-(1-Benzofuran-2-yl)imidazo[1,2-b]pyridazin-6-yl]-3-(pyridin-3-yl)propanamide]
10 nM	23 nM	O=C(Cc1cccc(F)c1)Nc1ccc2ncc(-c3cc4ccccc4o3)n2n1 [Example 8, N-[3-(1-Benzofuran-2-yl)imidazo[1,2-b]pyridazin-6-yl]-2-(3-fluorophenyl)-acetamide]
10 nM	13 nM	COc1nccc2oc(-c3cnc4ccc(NC(=O)[C@H](C)O)nn34)cc12 [Example 16, (2S)-2-hydroxy-N-[3-(4-methoxyfuro[3,2-c]pyridin-2-yl)imidazo[1,2-b]pyridazin-6-yl]propanamide]
7 nM	18 nM	O=C(Nc1ccc2ncc(-c3cc4ccccc4o3)n2n1)C(O)c1ccccc1 (stereo not drawn) [Example 2, N-[3-(1-Benzofuran-2-yl)imidazo[1,2-b]pyridazin-6-yl]-2-hydroxy-2-phenylacetamide]
3 nM	7 nM	COc1nccc2oc(-c3cnc4ccc(NC(=O)[C@@H](C)O)nn34)cc12 [Example 15, (2R)-2-hydroxy-N-[3-(4-methoxyfuro[3,2-c]pyridin-2-yl)imidazo[1,2-b]-pyridazin-6-yl]propanamide]
7 nM	10 nM	O=C(Nc1ccc2ncc(-c3cc4ccccc4o3)n2n1)C(O)C1CCCCC1 (stereo not drawn) [Example 4, N-[3-(1-Benzofuran-2-yl)imidazo[1,2-b]pyridazin-6-yl]-2-cyclohexyl-2-hydroxyacetamide]
14 nM	11 nM	N#Cc1cccc(CC(=O)Nc2ccc3ncc(-c4cc5ccccc5o4)n3n2)c1 [Example 21, N-[3-(1-benzofuran-2-yl)imidazo[1,2-b]pyridazin-6-yl]-2-(3-cyanophenyl)acetamide]
36 nM	36 nM	O=C(Nc1ccc2ncc(-c3cc4ccccc4o3)n2n1)c1cc(=O)[nH]c(=O)[nH]1 [Example 10, N-[3-(1-Benzofuran-2-yl)imidazo[1,2-b]pyridazin-6-yl]-2,6-dioxo-1,2,3,6-tetrahydropyrimidine-4-carboxamide]
17 nM	18 nM	CC1CCN(CC(=O)Nc2ccc3ncc(-c4cc5ccccc5o4)n3n2)CC1 [Example 32, N-[3-(1-benzofuran-2-yl)imidazo[1,2-b]pyridazin-6-yl]-2-(4-methylpiperidin-1-yl)acetamide]
8 nM	20 nM	C[C@H](O)C(=O)Nc1ccc2ncc(-c3cc4ccccc4o3)n2n1 [Example 14, (2S)—N-[3-(1-Benzofuran-2-yl)imidazo[1,2-b]pyridazin-6-yl]-2-hydroxypropanamide]
4 nM	7 nM	CC(C)CC(=O)Nc1ccc2ncc(-c3cc4ccccc4o3)n2n1 [Example 17, N-[3-(1-Benzofuran-2-yl)imidazo[1,2-b]pyridazin-6-yl]-3-methylbutanamide]
